A word on the EC50: it is the midpoint of the concentration-response curve. A high value points to weaker potency.

Bounds are passed on as bounds.

The source of these data is patent publication US20240246964A1 (Arbutus Biopharma Corporation, priority 2021, published 2024).

human PD-L1, sequence (Q9NZQ7 19-290): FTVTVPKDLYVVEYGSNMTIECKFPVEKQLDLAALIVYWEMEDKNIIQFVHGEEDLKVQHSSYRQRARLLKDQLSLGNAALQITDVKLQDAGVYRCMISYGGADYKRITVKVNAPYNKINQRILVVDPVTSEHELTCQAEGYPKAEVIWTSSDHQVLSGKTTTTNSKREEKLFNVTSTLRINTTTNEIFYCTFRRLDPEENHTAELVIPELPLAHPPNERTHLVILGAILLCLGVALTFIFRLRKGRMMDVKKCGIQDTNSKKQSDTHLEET

The experiment has as its target human PD-L1 (Homo sapiens (Human), UniProt Q9NZQ7). The experiment can be described thus: T cell activation luciferase reporter cell culture system (T Cell Activation Assay). It counts as cell-based. The conditions noted are these: luciferase reporter assay; PD-L1 aAPC/CHO-K1 cells with PD-1 effector Jurkat T cells. (In general: A reporter such as luciferase makes a cellular process visible.)
For the compound `COc1cc(-c2nccc(-c3cccc(-c4ccc(CN5CC6(CNC(=O)C6)C5)c(OC)n4)c3Cl)c2Cl)ccc1CN1CC(C)(O)C1` [Example 498, 2-((6-(2-Chloro-3-(3-chloro-2-(4-((3-hydroxy-3-methylazetidin-1-yl)methyl)-3-methoxyphenyl)pyridin-4-yl)phenyl)-2-methoxypyridin-3-yl)methyl)-2,6-diazaspiro[3.4]octan-7-one], the EC50 was determined as 26.5 nM.
For `COC(=O)N1CCC(NCc2ccc(-c3nccc(-c4cccc(-c5ccc(CNC6CCN(C(=O)OC)CC6)c(OC)n5)c4Cl)c3Cl)cc2OC)CC1` [Example 465, Methyl 4-(((6-(2-chloro-3-(3-chloro-2-(3-methoxy-4-(((1-(methoxycarbonyl)piperidin-4-yl)amino)methyl)phenyl)pyridin-4-yl)phenyl)-2-methoxypyridin-3-yl)methyl)amino)piperidine-1-carboxylate], the response was half-maximal at 48.3 nM (EC50).
`COc1cc(-c2nccc(-c3cccc(-c4ccc(CN[C@H]5CC[C@@H](OC)CC5)c(OC)n4)c3Cl)c2Cl)ccc1CN[C@H]1CC[C@@H](OC)CC1` [Example 448, (1s,4s)-N-((6-(2-Chloro-3-(3-chloro-2-(3-methoxy-4-((((1s,4s)-4-methoxycyclohexyl)amino)methyl)phenyl)pyridin-4-yl)phenyl)-2-methoxypyridin-3-yl)methyl)-4-methoxycyclohexan-1-amine]: the EC50 is 76.3 nM.
As for `COc1cc(-c2nccc(-c3cccc(-c4ccc(CNC[C@@H]5CCC(=O)N5)c(OC)n4)c3Cl)c2Cl)cc2c1CN(CCC1(O)CC1)CC2` [Cmpd 74, (S)-5-((((6-(2-chloro-3-(3-chloro-2-(2-(2-(1-hydroxycyclopropyl)ethyl)-8-methoxy-1,2,3,4-tetrahydroisoquinolin-6-yl)pyridin-4-yl)phenyl)-2-methoxypyridin-3-yl)methyl)amino)methyl)pyrrolidin-2-one], the figure is 70 nM; as for `CNCc1ccc(-c2nccc(-c3cccc(-c4ccc(CNC5CCN(C(C)=O)CC5)c(OC)n4)c3Cl)c2Cl)cc1OC` [Example 240, 1-(4-(((6-(2-chloro-3-(3-chloro-2-(3-methoxy-4-((methylamino)methyl)phenyl)pyridin-4-yl)phenyl)-2-methoxypyridin-3-yl)methyl)amino)piperidin-1-yl)ethan-1-one], 29.1 nM; as for `COc1cc(-c2ncnc(-c3cccc(-c4ccc(CN5CC6(CC(O)C6)C5)c(OC)n4)c3Cl)c2Cl)ccc1CN1CC2(CC(O)C2)C1` [Example 568, 2-((6-(2-chloro-3-(5-chloro-6-(4-((6-hydroxy-2-azaspiro[3.3]heptan-2-yl)methyl)-3-methoxyphenyl)pyrimidin-4-yl)phenyl)-2-methoxypyridin-3-yl)methyl)-2-azaspiro[3.3]heptan-6-ol], 187 nM.
The compound `COCCC(=O)N1CCC(NCc2ccc(-c3cccc(-c4ccnc(-c5ccc(CNC[C@H](C)O)c(OC)c5)c4Cl)c3Cl)nc2OC)CC1` [Example 632, (S)-1-(4-(((6-(2-Chloro-3-(3-chloro-2-(4-(((2-hydroxypropyl)amino)methyl)-3-methoxyphenyl)pyridin-4-yl)phenyl)-2-methoxypyridin-3-yl)methyl)amino)piperidin-1-yl)-3-methoxypropan-1-one] had an EC50 of 41.2 nM.
Next, `COc1cc(-c2nccc(-c3cccc(-c4ccc(CNC5CCN(C(=O)CO)CC5)c(OC)n4)c3Cl)c2Cl)ccc1CNC1CCN(C(=O)CO)CC1` [Example 443, 1-(4-(((6-(2-Chloro-3-(3-chloro-2-(4-(((1-(2-hydroxyacetyl)piperidin-4-yl)amino)methyl)-3-methoxyphenyl)pyridin-4-yl)phenyl)-2-methoxypyridin-3-yl)methyl)amino)piperidin-1-yl)-2-hydroxyethan-1-one]: 10.5 nM; `COc1cc(-c2nccc(-c3cccc(NC(=O)c4ccc(CNCCO)cn4)c3C)c2Cl)ccc1CNC1CCN(C(C)=O)CC1` [Example 700, N-(3-(2-(4-(((1-Acetylpiperidin-4-yl)amino)methyl)-3-methoxyphenyl)-3-chloropyridin-4-yl)-2-methylphenyl)-5-(((2-hydroxyethyl)amino)methyl)picolinamide]: 124 nM.
In turn, `COc1cc(-c2nccc(-c3cccc(-c4ccc(CNC[C@@H]5CCC(=O)N5)c(OC)n4)c3Cl)c2Cl)ccc1CNCC(=O)OC(C)C` [Cmpd 108, isopropyl (S)-(4-(3-chloro-4-(2-chloro-3-(6-methoxy-5-((((5-oxopyrrolidin-2-yl)methyl)amino)methyl)pyridin-2-yl)phenyl)pyridin-2-yl)-2-methoxybenzyl)glycinate] returned an EC50 of 140 nM.
On to `COc1cc(-c2nccc(-c3cccc(-c4ccc(CNC5CCN(C(C)=O)CC5)c(OC)n4)c3Cl)c2Cl)ccc1CNC1CC2(COC2)C1` [Example 379, 1-(4-(((6-(3-(2-(4-(((2-Oxaspiro[3.3]heptan-6-yl)amino)methyl)-3-methoxyphenyl)-3-chloropyridin-4-yl)-2-chlorophenyl)-2-methoxypyridin-3-yl)methyl)amino)piperidin-1-yl)ethan-1-one], for which the EC50 worked out at 45.3 nM.
As for `COc1cc(-c2nccc(-c3cccc(-c4ccc(CNC5CC6(COC6)C5)c(OC)n4)c3C(F)(F)F)c2Cl)ccc1CNC1CC2(COC2)C1` (stereo not shown) [Example 604, N-((6-(3-(2-(4-(((2-Oxaspiro[3.3]heptan-6-yl)amino)methyl)-3-methoxyphenyl)-3-chloropyridin-4-yl)-2-(trifluoromethyl)phenyl)-2-methoxypyridin-3-yl)methyl)-2-oxaspiro[3.3]heptan-6-amine], the figure is at least 10000 nM; as for `COc1cc(-c2nccc(-c3cccc(-c4ccc(CNC5CCN(c6ccccn6)CC5)c(OC)n4)c3Cl)c2Cl)ccc1CNC1CCN(c2ccccn2)CC1` [Example 444, N-((6-(2-Chloro-3-(3-chloro-2-(3-methoxy-4-(((1-(pyridin-2-yl)piperidin-4-yl)amino)methyl)phenyl)pyridin-4-yl)phenyl)-2-methoxypyridin-3-yl)methyl)-1-(pyridin-2-yl)piperidin-4-amine], at least 10000 nM.
Compound `COc1nc(-c2cccc(-c3ccnc(-c4ccc(CNC5CCN(C(C)=O)CC5)c(OC(F)F)c4)c3Cl)c2Cl)ccc1CNC1CCN(C(C)=O)CC1` [Example 394, 1-(4-(((6-(3-(2-(4-(((1-Acetylpiperidin-4-yl)amino)methyl)-3-(difluoromethoxy)phenyl)-3-chloropyridin-4-yl)-2-chlorophenyl)-2-methoxypyridin-3-yl)methyl)amino)piperidin-1-yl)ethan-1-one] registered an EC50 of 22.2 nM.
Next, `COc1cc(-c2nccc(-c3cccc(-c4ccc(CNCCCCC(N)=O)c(OC)n4)c3Cl)c2Cl)ccc1CNCCCCC(N)=O` [Example 373, 5-(((6-(3-(2-(4-(((5-Amino-5-oxopentyl)amino)methyl)-3-methoxyphenyl)-3-chloropyridin-4-yl)-2-chlorophenyl)-2-methoxypyridin-3-yl)methyl)amino)pentanamide]: 152 nM.
`COc1cc(-c2ncnc(-c3cccc(-c4ccc(CN5CCN(C(C)=O)CC5)c(OC)n4)c3Cl)c2Cl)ccc1CN1CCN(C(C)=O)CC1` [Example 562, 1-(4-((6-(3-(6-(4-((4-acetylpiperazin-1-yl)methyl)-3-methoxyphenyl)-5-chloropyrimidin-4-yl)-2-chlorophenyl)-2-methoxypyridin-3-yl)methyl)piperazin-1-yl)ethan-1-one]: the EC50 was at least 10000 nM.
As to `COc1nc(-c2ccnc(-c3cccc(NC(=O)c4cn(C)c(=O)n(C)c4=O)c3Cl)c2Cl)ccc1CN1CC2(CNC(=O)C2)C1` [Compound 719, N-(2-Chloro-3-(3′-chloro-6-methoxy-5-((7-oxo-2,6-diazaspiro[3.4]octan-2-yl)methyl)-[2,4′-bipyridin]-2′-yl)phenyl)-1,3-dimethyl-2,4-dioxo-1,2,3,4-tetrahydropyrimidine-5-carboxamide], the EC50 was 420 nM.
`CNCc1ccc(C(=O)Nc2cccc(-c3ccnc(-c4ccc(CNC)c(OC)c4)c3Cl)c2C)nc1` [Example 696, N-(3-(3-Chloro-2-(3-methoxy-4-((methylamino)methyl)phenyl)pyridin-4-yl)-2-methylphenyl)-5-((methylamino)methyl)picolinamide]: a half-maximal effect (EC50) was put at 244 nM.
As for `COc1nc(-c2ccnc(-c3cccc4c3CC[C@@H]4Nc3nc(OC)c(CNC4CCN(C(C)=O)CC4)cc3C(F)(F)F)c2Cl)ccc1CNC[C@@H]1CCC(=O)N1` [Example 633, (S)-5-((((2′-((S)-1-((5-(((1-Acetylpiperidin-4-yl)amino)methyl)-6-methoxy-3-(trifluoromethyl)pyridin-2-yl)amino)-2,3-dihydro-1H-inden-4-yl)-3′-chloro-6-methoxy-[2,4′-bipyridin]-5-yl)methyl)amino)methyl)pyrrolidin-2-one], a half-maximal effect (EC50) was put at 121 nM.
In turn, `COc1cc(-c2nccc(-c3cccc(-c4ccc(CNC5CCN(C(=O)N(C)C)CC5)c(OC)n4)c3Cl)c2Cl)ccc1CNC1CCN(C(=O)N(C)C)CC1` [Example 419, 4-(((6-(2-Chloro-3-(3-chloro-2-(4-(((1-(dimethylcarbamoyl)piperidin-4-yl)amino)methyl)-3-methoxyphenyl)pyridin-4-yl)phenyl)-2-methoxypyridin-3-yl)methyl)amino)-N,N-dimethylpiperidine-1-carboxamide] displayed an EC50 of 19.5 nM.
Next, `COc1cc(-c2ncnc(-c3cccc(-c4ccc(CN5CC6(CNC(=O)C6)C5)c(OC)n4)c3Cl)c2OC)ccc1CN1CC2(CNC(=O)C2)C1` [Example 727, 2-((6-(2-Chloro-3-(5-methoxy-6-(3-methoxy-4-((7-oxo-2,6-diazaspiro[3.4]octan-2-yl)methyl)phenyl)pyrimidin-4-yl)phenyl)-2-methoxypyridin-3-yl)methyl)-2,6-diazaspiro[3.4]octan-7-one]: at least 10000 nM.
In turn, `COc1cc(-c2nccc(-c3cccc(-c4ccc(CNC5CCN(CC(F)F)CC5)c(OC)n4)c3Cl)c2Cl)ccc1CNC1CCN(CC(F)F)CC1` [Example 420, N-((6-(2-Chloro-3-(3-chloro-2-(4-(((1-(2,2-difluoroethyl)piperidin-4-yl)amino)methyl)-3-methoxyphenyl)pyridin-4-yl)phenyl)-2-methoxypyridin-3-yl)methyl)-1-(2,2-difluoroethyl)piperidin-4-amine] gave a 50% effective concentration (EC50) of 42.6 nM.
